Several values for one entry are separate records, joined by “and”; a condition that tells them apart may be missing. Equal entries are not always repeated.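 1) Cells in 96-well plates. 2) Compound, 48 h, 5 concentrations. 3) Linear interpolation between surrounding doses. 4) Unreached endpoint = highest concentration. GI50 marks 50% less growth. TGI marks complete inhibition of growth.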
Tests used:
Experiment in all cases: inhibition of tumour cell growth, NCI panel, 48 h
MDA-MB-435 = test system: MDA-MB-435
UACC-257 melanoma = test system: UACC-257 melanoma
DU-145 prostate = test system: DU-145 prostate
NCI-H522 lung = test system: NCI-H522 lung
NCI/ADR-RES ovarian = test system: NCI/ADR-RES ovarian
HT29 colon = test system: HT29 colon
ACHN renal = test system: ACHN renal
A498 renal = test system: A498 renal

Structure (SMILES)	GI50 (MDA-MB-435)	TGI (MDA-MB-435)	GI50 (UACC-257 melanoma)	TGI (UACC-257 melanoma)	GI50 (DU-145 prostate)	TGI (DU-145 prostate)	GI50 (NCI-H522 lung)	TGI (NCI-H522 lung)	GI50 (NCI/ADR-RES ovarian)	TGI (NCI/ADR-RES ovarian)	GI50 (HT29 colon)	TGI (HT29 colon)	GI50 (ACHN renal)	TGI (ACHN renal)	GI50 (A498 renal)	TGI (A498 renal)
Cn1cc(-c2cnc3ccc4ccc(CS(=O)(=O)NCc5ccccn5)cc4c(=O)c3c2)cn1	3.33 µM	27.5 µM	15000 nM	32.2 µM	33.7 µM	> 100 µM	22000 nM	> 95.9 µM	23.5 µM	> 100 µM	15.1 µM	> 100 µM	16.4 µM	> 100 µM	18.1 µM	> 55.6 µM
Cc1cc(Nc2ncnc3ccc(NC4=NC(C)(C)CO4)cc23)ccc1Oc1ccn2ncnc2c1	16.4 µM and > 10 µM	36.9 µM and > 10 µM	16900 nM and > 10000 nM	33.1 µM and > 10 µM	15.9 µM and > 10 µM	> 100 µM	2440 nM and > 10000 nM	21.1 µM and > 10 µM	17.1 µM and > 10 µM	89.2 µM and > 10 µM	14.4 µM and > 10 µM	38.7 µM and > 10 µM	4.48 µM and 9.46 µM	> 100 µM	4.1 µM and > 10 µM	24.8 µM and > 10 µM
C=C1C(=O)O[C@H]2[C@H]1CC/C(COC(=O)NCCc1c[nH]c3ccc(OC)cc13)=C\CC[C@@]1(C)O[C@@H]21	1.8 µM	4.06 µM	1520 nM	3.3 µM	1.61 µM	4.43 µM	1180 nM	2.75 µM	7.57 µM	29.2 µM	1.58 µM	3.09 µM	1.38 µM	2.72 µM	10.5 µM	22.7 µM
O=C(Nc1ccccc1O)c1ccc(Oc2cccc(C(=O)Nc3ccccc3O)c2)cc1	0.294 µM	10.2 µM	1690 nM	8.21 µM	3.37 µM	11.9 µM	1070 nM	4.73 µM	1.5 µM	6.7 µM	4.93 µM	16.9 µM	2.64 µM	11.9 µM	0.0225 µM	5.06 µM
Cc1ccc(-c2cc(C3=CC(=O)C=CC3=O)n(-c3ccc(S(N)(=O)=O)cc3)n2)cc1	59.4 µM	> 100 µM	> 100000 nM	> 100 µM	–	–	59900 nM	> 100 µM	–	–	56.4 µM	> 100 µM	42.9 µM	> 100 µM	–	–
C=CCC1(O)c2cccc(NCCO)c2C(=O)c2c(NCCO)cccc21	> 100 µM	> 100 µM	> 100000 nM	> 100 µM	> 100 µM	> 100 µM	> 100000 nM	> 100 µM	> 100 µM	> 100 µM	> 100 µM	> 100 µM	> 100 µM	> 100 µM	> 100 µM	> 100 µM
O=C(O)c1cc2cc(OCc3ccccc3)c(OCc3ccccc3)cc2[nH]1	19.2 µM	47.9 µM	22200 nM	62.9 µM	32.8 µM	> 100 µM	24000 nM	62.2 µM	20.2 µM	49.1 µM	29.5 µM	59.6 µM	25.4 µM	90.1 µM	–	–
Cc1ccc(SC2=CC(=O)c3nc4ccccc4c4ccnc2c34)cc1	16.3 µM	31.2 µM	24700 nM	77.7 µM	43 µM	> 67.4 µM	16300 nM	38.4 µM	27.9 µM	> 95.4 µM	38 µM	> 100 µM	31 µM	> 100 µM	> 100 µM	> 100 µM
O=C(O)c1cc(N=Cc2ccccc2O)cc(C(=O)O)c1	–	> 100 µM	–	> 100 µM	–	> 100 µM	–	> 100 µM	–	> 100 µM	–	> 100 µM	–	> 100 µM	–	> 100 µM
COC(=O)C1(F)C(=O)NC(=O)NC1O (stereo unspecified)	–	> 100 µM	–	> 100 µM	–	> 100 µM	–	> 100 µM	–	> 100 µM	–	> 100 µM	–	> 100 µM	–	> 100 µM
COc1ccc(-c2ccc(-c3ccc(-c4ccc(C(=N)N)cc4)s3)s2)cc1OC	5.32 µM	20.2 µM	22000 nM	54.3 µM	0.478 µM	2.23 µM	14100 nM	62.2 µM	2.51 µM	6.54 µM	–	–	3.79 µM	15.3 µM	11 µM	27.8 µM
COc1cccc2c1C(=O)c1c(O)c3c(c(O)c1C2=O)C[C@@](O)(C(=O)CO)C[C@@H]3OC1C[C@H](N)[C@H](O)[C@H](C)O1 (stereo partly specified)	0.109 µM	0.574 µM	102 nM	1.8 µM	0.0684 µM	–	33.4 nM	0.317 µM	–	–	0.0958 µM	–	0.0257 µM	0.242 µM	0.0482 µM	0.146 µM
CN1CCN(Cc2ccc(NC(=O)c3ccc(C#Cc4c(N)ncc5ccc(F)cc45)cc3)cc2C(F)(F)F)CC1	0.874 µM	1.59 µM	1020 nM	1.91 µM	0.968 µM	1.77 µM	860 nM	1.59 µM	1.08 µM	2.32 µM	0.876 µM	1.86 µM	0.97 µM	1.71 µM	1.79 µM	9.71 µM
O=Nc1ccc2ccccc2c1O	2.31 µM	4.53 µM	2130 nM	4.19 µM	10.4 µM	22.7 µM	1780 nM	4.17 µM	2.62 µM	8.22 µM	3.46 µM	13.4 µM	5.5 µM	18.4 µM	14.3 µM	28.2 µM
CN(C)C(=O)c1cc2cnc(Nc3ccc(-c4csc5c(=O)cc(N6CCOCC6)oc45)cc3)nc2n1C1CCCC1	0.196 µM	1.89 µM	269 nM	0.909 µM	0.265 µM	1.32 µM	247 nM	1.3 µM	0.375 µM	> 65.6 µM	0.27 µM	> 100 µM	0.187 µM	1.25 µM	0.0547 µM	0.244 µM
O=C(Nc1ccc(Cl)cc1)c1cc(-c2ccc(Cl)cc2)c2sc(=O)[nH]c2n1	2.7 µM	11.2 µM	1190 nM	4.69 µM	3.31 µM	26.5 µM	408 nM	3.12 µM	1.98 µM	7.61 µM	2.13 µM	6.29 µM	2.27 µM	8.89 µM	0.472 µM	3.42 µM

— PubChem BioAssay (NCI)
